{"source": "patent US5714615A", "about": "(priority 1994, dated 1998)", "key": {"[1]": {"conditions": "mouse, in vivo"}, "AChE": {"test_system": "AChE", "type": "biochemical, electric eel and human"}, "nicotinic receptor": {"target": "nicotinic receptor (Rattus norvegicus, UniProt P09483+P12390)", "sequence (P12390 25-500)": "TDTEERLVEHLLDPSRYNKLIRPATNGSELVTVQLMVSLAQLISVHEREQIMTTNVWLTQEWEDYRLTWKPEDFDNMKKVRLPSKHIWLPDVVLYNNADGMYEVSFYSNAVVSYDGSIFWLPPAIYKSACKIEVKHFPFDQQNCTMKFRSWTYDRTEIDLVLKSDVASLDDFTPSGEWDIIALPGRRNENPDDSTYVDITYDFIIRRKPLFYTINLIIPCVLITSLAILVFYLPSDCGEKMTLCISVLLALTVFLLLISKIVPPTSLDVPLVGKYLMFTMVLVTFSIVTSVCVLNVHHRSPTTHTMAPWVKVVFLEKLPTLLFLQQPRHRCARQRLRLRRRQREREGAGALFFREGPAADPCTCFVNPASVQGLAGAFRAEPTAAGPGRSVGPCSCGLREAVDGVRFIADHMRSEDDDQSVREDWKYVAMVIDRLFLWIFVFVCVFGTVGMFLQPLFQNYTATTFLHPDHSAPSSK", "sequence (P09483 31-630)": "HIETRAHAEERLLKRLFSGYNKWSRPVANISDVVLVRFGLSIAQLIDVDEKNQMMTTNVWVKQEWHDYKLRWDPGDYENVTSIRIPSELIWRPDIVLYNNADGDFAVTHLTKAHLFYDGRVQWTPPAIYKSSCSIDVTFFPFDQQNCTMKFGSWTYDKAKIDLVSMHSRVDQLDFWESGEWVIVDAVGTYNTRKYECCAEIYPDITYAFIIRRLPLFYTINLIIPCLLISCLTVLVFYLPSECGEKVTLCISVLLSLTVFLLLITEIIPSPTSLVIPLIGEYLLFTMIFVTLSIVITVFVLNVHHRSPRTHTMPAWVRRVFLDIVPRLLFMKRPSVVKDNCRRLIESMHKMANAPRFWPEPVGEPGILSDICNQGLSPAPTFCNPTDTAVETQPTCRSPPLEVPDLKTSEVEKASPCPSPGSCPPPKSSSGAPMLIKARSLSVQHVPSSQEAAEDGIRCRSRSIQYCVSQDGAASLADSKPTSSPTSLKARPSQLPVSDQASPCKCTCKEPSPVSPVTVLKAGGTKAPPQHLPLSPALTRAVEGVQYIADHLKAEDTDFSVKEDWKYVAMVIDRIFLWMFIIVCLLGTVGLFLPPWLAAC", "experiment": "biochemical", "type": "binding"}, "[2]": {"target": "human erythrocyte acetylcholinesterase (Homo sapiens, UniProt P22303)", "sequence (P22303-2 with tags, fused parts or gaps limits assumed)": "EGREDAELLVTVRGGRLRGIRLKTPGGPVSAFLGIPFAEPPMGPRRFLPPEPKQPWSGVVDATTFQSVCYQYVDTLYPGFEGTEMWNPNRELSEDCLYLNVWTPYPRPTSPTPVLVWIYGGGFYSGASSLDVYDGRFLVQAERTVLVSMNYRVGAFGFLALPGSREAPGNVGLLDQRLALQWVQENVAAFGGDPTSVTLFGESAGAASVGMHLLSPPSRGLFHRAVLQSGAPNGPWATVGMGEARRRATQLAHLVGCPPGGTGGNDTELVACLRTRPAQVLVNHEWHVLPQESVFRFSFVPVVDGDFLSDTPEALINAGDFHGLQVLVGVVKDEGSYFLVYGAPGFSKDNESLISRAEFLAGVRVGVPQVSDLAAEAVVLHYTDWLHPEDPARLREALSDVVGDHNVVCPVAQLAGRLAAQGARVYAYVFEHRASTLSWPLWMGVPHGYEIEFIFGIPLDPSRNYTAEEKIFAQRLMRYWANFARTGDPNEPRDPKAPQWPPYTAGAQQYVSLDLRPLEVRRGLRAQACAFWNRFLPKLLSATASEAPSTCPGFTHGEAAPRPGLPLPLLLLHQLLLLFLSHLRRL", "type": "biochemical", "conditions": "erythrocyte ache"}, "[3]": {"target": "T1, electric eel acetylcholinesterase (Electrophorus electricus, UniProt O42275)", "T1 sequence (O42275 24-633)": "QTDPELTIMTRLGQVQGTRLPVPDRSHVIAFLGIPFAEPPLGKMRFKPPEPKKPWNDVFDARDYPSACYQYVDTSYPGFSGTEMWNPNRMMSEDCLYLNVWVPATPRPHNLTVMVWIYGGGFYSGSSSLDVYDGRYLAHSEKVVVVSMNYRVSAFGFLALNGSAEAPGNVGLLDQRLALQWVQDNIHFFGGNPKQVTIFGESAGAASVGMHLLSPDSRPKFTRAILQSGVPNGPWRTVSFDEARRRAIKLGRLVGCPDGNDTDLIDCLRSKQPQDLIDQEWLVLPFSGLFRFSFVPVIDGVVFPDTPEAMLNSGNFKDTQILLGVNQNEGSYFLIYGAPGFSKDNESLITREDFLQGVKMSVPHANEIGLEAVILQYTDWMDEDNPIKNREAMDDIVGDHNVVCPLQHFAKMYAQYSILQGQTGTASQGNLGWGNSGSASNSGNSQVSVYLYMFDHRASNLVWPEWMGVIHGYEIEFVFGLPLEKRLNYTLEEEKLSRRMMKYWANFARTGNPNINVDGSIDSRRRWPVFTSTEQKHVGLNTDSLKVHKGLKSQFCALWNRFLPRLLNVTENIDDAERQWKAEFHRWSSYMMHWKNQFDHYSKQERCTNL", "conditions": "cited from earlier work"}, "[4]": {"target": "T1, electric eel acetylcholinesterase", "type": "biochemical", "conditions": "0.1m phosphate buffer"}, "DMTS performance": {"test_system": "DMTS performance", "conditions": "monkey, in vivo; cited from earlier work"}, "GA": {"test_system": "GA", "parameters": "species or system Male ICR mice", "conditions": "mouse, in vivo"}, "human erythrocyte AChE": {"target": "human erythrocyte AChE (Homo sapiens, UniProt P22303)", "sequence (P22303-2 with tags, fused parts or gaps limits assumed)": "as the sequence (P22303-2 with tags, fused parts or gaps limits assumed) above", "type": "biochemical"}, "electric eel AChE": {"target": "electric eel AChE (Electrophorus electricus, UniProt O42275)", "sequence (O42275 24-633)": "as the sequence (O42275 24-633) above", "type": "biochemical"}, "in vivo": {"experiment": "in vivo", "conditions": "mouse, po"}}, "note": "Entries after “also recorded” stand apart in the source; their conditions may differ."}
{"smiles": "C[n+]1ccccc1C=NOCc1ccccc1", "note": "[Compound 1a, O-Benzyl-N-(1-methyl-2-pyridinemethylene) hydroxylamine chloride]", "values": [{"measurement": "comparative drug toxicity", "setting": "[1]", "value": 1, "unit": "a>1b"}, {"measurement": "mode of inhibition of AChE", "setting": "AChE", "value": "pure competitive inhibition"}]}
{"smiles": "C[n+]1ccccc1C=NNC(=O)C[n+]1ccccc1", "note": "[Compound 5b, 2-(1-Methyl-2-pyridinemethylene)-1-[2-(1-pyridinium)acetyl] hydrazine dichloride]", "values": [{"measurement": "mode of inhibition of AChE", "setting": "AChE", "value": "mixed-type inhibition; also recorded: At concentrations up to 75 μM, 5b acts as a noncompetitive inhibitor; also recorded: at higher concentrations, 5b is an uncompetitive inhibitor"}]}
{"smiles": "CNC(=O)Oc1ccc2c(c1)[C@]1(C)CCN(C)[C@@H]1N2C", "note": "[Physostigmine]", "values": [{"measurement": "binding to nicotinic receptors", "setting": "nicotinic receptor", "value": "no selective binding to nicotinic receptors, even at mM concentrations"}, {"measurement": "kobs/[I] (human)", "setting": "[2]", "value": 19000, "unit": "M⁻¹ s⁻¹"}, {"measurement": "kobs/[I] (literature value, footnote to eel column)", "setting": "[3]", "value": 18500, "unit": "M⁻¹ s⁻¹"}, {"measurement": "kobs/[I] (eel)", "setting": "[4]", "value": 140000, "unit": "M⁻¹ s⁻¹"}, {"measurement": "delay intervals at which DMTS is improved", "setting": "DMTS performance", "value": "acts more evenly across short, medium and long delays"}, {"measurement": "duration of DMTS response", "setting": "DMTS performance", "value": "evokes responses only on the day of administration"}, {"measurement": "improvement in DMTS performance", "setting": "DMTS performance", "value": "5-10 % points"}]}
{"smiles": "C[n+]1cccc(O)c1C=NO", "note": "[Compound 1f]", "values": [{"measurement": "% survival", "setting": "GA", "value": 0, "unit": "%"}, {"measurement": "inhibition of human AChE", "setting": "human erythrocyte AChE", "value": "did not inhibit either enzyme at concentrations up to 1 mM"}, {"measurement": "inhibition of electric eel AChE", "setting": "electric eel AChE", "value": "did not inhibit either enzyme at concentrations up to 1 mM"}, {"measurement": "comparative drug toxicity", "setting": "[1]", "value": "small increase in toxicity"}]}
{"smiles": "C[n+]1cc(O)ccc1C=NO", "note": "[Compound 1g]", "values": [{"measurement": "% survival", "setting": "GA", "value": 0, "unit": "%"}, {"measurement": "comparative drug toxicity", "setting": "[1]", "value": "small increase in toxicity"}]}
{"smiles": "CN(C)C(=O)Oc1ccc[n+](C)c1", "note": "[Pyridostigmine, pyridostigmine]", "values": [{"measurement": "kobs/[I] (literature value, footnote to eel column)", "setting": "[3]", "value": 843, "unit": "M⁻¹ s⁻¹"}]}
{"smiles": "Clc1cccc(Cl)c1N=C1NCCN1", "note": "[Clonidine, clonidine]", "values": [{"measurement": "delay intervals at which DMTS is improved", "setting": "DMTS performance", "value": "improves DMTS performance to the greatest extent at medium delays"}, {"measurement": "duration of DMTS improvement after administration", "setting": "DMTS performance", "value": "at least 24 hr"}]}
{"smiles": "C[N+](C)(C)CCOC(N)=O", "note": "[Carbachol]", "values": [{"measurement": "IC50", "setting": "nicotinic receptor", "value": 699, "unit": "nM"}, {"measurement": "potency less than nicotine", "setting": "nicotinic receptor", "value": "about 18 fold"}]}
{"smiles": "C[n+]1cccc(O)c1C=NNC(=O)Nc1ccccc1.[Cl-]", "note": "[Compound 3b, 3-Hydroxy-1-methyl-2-[[(N-phenylaminocarbonyl)hydrazono]methyl] pyridinium chloride]", "values": [{"measurement": "mode of inhibition of AChE", "setting": "AChE", "value": "mixed-type inhibition; also recorded: noncompetitive kinetics"}]}
{"smiles": "C[n+]1cccc(O)c1C=NOCc1ccccc1", "note": "[Compound 1b, O-Benzyl-N-(3-hydroxy-1-methyl-2-pyridinemethylene) hydroxylamine chloride]", "values": [{"measurement": "comparative drug toxicity", "setting": "[1]", "value": 1, "unit": "b>1c"}, {"measurement": "mode of inhibition of AChE", "setting": "AChE", "value": "pure competitive inhibition"}]}
{"smiles": "CON=Cc1c(O)ccc[n+]1C", "note": "[Compound 1c, O-Methyl-N-(3-hydroxy-1-methyl-2-pyridinemethylene) hydroxylamine chloride]", "values": [{"measurement": "% survival", "setting": "GA", "value": 0, "unit": "%"}, {"measurement": "inhibition of human AChE", "setting": "human erythrocyte AChE", "value": "did not inhibit either enzyme at concentrations up to 1 mM"}, {"measurement": "inhibition of electric eel AChE", "setting": "electric eel AChE", "value": "did not inhibit either enzyme at concentrations up to 1 mM"}, {"measurement": "LD50 at 24 h", "setting": "in vivo", "value": "> 3200", "unit": "µmol/kg"}]}
{"smiles": "COc1ccc(CON=Cc2c(O)ccc[n+]2C)cc1", "note": "[Compound 1e, O-(p-Methoxybenzyl)-N-(3-hydroxy-1-methyl-2-pyridinemethylene) hydroxylamine chloride]", "values": [{"measurement": "mode of inhibition of AChE", "setting": "AChE", "value": "pure competitive inhibition"}]}
{"smiles": "C[n+]1cccc(O)c1C=NOCc1ccc(Cl)cc1", "note": "[Compound 1d, O-(p-Chlorobenzyl)-N-(3-hydroxy-1-methyl-2-pyridinemethylene) hydroxylamine chloride]", "values": [{"measurement": "mode of inhibition of AChE", "setting": "AChE", "value": "pure competitive inhibition"}]}
{"smiles": "CN1CCCC1c1cccnc1", "note": "(stereo not shown) [Nicotine]", "values": [{"measurement": "improvement in DMTS performance", "setting": "DMTS performance", "value": "5-10 % points"}]}
